Activity calls are given as the source filed them.
Experiments:
Hexokinase-1 = Hexokinase-1 (Homo sapiens, UniProt P19367); experiment: HK1 enzyme activation by HKDC1 hits – biochemical, selectivity assay for HKDC1 activator project, dose response (AID 504762); format: functional
[1] = biological target: Peroxisome proliferator-activated receptor gamma/Nuclear receptor coactivator 2 (Homo sapiens, UniProt P37231); format: functional;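 also: agonist potency for raising coactivator recruitment to the receptor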
Beta-galactosidase = Beta-galactosidase (Escherichia coli, UniProt Q8VNN2); experiment: detection-enzyme interference by beta-gal modulators – biochemical, E. coli enzyme, set 3, artefact control for CCR6 antagonist project, dose response (AID 504712); format: functional
H4 = experiment: Luminescence Cell-Based Dose Response HTS to Identify Activators of 5'UTR Stem-Loop Driven Prion Protein mRNA Translation in H4 Neuroglioblastoma Cells. [Related pubchem assays: 1829 (Project Summary), 1814 (Primary HTS)]; format: functional; settings: Homo sapiens
[2] = Luminescence Cell-Based Dose Confirmation HTS to Identify Activators of 5'UTR Stem-Loop Driven Alpha-Synuclein mRNA Translation in H4 Neuroglioblastoma Cells. [Related pubchem assays: 1829 (Project Summary), 1814 (Primary HTS)]; format: functional
[3] = biological target: Eukaryotic translation initiation factor 4E (Mus musculus, UniProt P63073); experiment: blockers of eIF4G binding by eIF4E – biochemical, TR-FRET, dose response (AID 855); format: functional;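 also: potency for disrupting eIF4E binding to eIF4GI seen as loss of FRET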
Sequence of Eukaryotic translation initiation factor 4E (P63073 whole entry): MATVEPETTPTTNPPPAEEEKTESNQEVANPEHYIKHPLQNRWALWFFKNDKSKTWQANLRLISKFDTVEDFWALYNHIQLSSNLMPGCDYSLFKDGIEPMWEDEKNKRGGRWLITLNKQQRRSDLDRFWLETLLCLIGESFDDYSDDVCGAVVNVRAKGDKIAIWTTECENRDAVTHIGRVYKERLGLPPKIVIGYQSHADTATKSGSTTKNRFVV

[4] = viability loss in HeLa cells – cytotoxicity control for MgcRacGAP inhibitor project, dose response (AID 624300); format: functional
[5] = biological target: Glutathione-S-transferase (Schistosoma japonicum, UniProt Q26513); experiment: GST-antibody interaction or FRET quenching – biochemical, TR-FRET, artefact control for Vif-APOBEC3G degradation inhibitor project, dose response (AID 1117362); format: functional
Sequence of Glutathione-S-transferase (Q26513 whole entry): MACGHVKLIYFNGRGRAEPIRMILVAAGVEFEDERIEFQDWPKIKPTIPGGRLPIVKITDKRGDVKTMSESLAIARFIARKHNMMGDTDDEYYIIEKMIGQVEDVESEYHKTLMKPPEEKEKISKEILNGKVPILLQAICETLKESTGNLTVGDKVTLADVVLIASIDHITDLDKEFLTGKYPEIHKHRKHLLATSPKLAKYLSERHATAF

[6] = IC50 of Artemis nuclease activity blockers – biochemical, fluorescence intensity, dose response (AID 720701); format: functional;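 also: Artemis endonuclease enzyme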
[7] = Fluorescence-based cell-based high throughput dose response assay for inhibitors of the interaction of nucleotide-binding oligomerization domain containing 2 (NOD2) and the receptor-interacting serine-threonine kinase 2 (RIPK2).; format: functional; settings: Homo sapiens
HEK293 = experiment: inhibition of NOD1-driven NF-kB reporter – cell-based, luminescence, uHTS, primary screen (AID 1578); format: functional; settings: Homo sapiens
[8] = biological target: Interleukin-1 receptor-associated kinase 4 (Homo sapiens, UniProt Q9NWZ3); format: functional
Sequence of Interleukin-1 receptor-associated kinase 4 (Q9NWZ3 whole entry): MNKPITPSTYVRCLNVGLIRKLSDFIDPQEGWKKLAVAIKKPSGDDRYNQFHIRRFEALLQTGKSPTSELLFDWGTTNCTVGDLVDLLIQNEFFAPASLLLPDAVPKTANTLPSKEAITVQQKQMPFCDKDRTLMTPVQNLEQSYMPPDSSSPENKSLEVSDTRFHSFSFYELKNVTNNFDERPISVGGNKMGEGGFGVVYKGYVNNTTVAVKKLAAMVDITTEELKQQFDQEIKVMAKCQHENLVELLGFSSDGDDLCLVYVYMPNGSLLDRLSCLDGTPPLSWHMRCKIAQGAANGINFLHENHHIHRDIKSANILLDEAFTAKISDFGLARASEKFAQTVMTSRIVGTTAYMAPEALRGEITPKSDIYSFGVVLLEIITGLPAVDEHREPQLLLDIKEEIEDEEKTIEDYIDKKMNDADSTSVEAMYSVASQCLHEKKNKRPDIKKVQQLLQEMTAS

[9] = biological target: MAP kinase-activated protein kinase 3 (Homo sapiens, UniProt Q16644); format: functional;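 also: value comes from a kinome-wide profiling panel in which MAPKAPK3 is one of the panel members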
[10] = biological target: MAP kinase-activated protein kinase 5 (Homo sapiens, UniProt Q8IW41); format: functional;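 also: measured as one member of a kinome panel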
[11] = biological target: Tyrosine-protein kinase ITK/TSK (Homo sapiens, UniProt Q08881); format: functional;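 also: affinity for ITK measured as one member of a broad kinase panel profiling binding across the kinome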
[12] = biological target: Serine/threonine-protein kinase PLK3 (Homo sapiens, UniProt Q9H4B4); format: functional
[13] = biological target: Protein kinase C delta type (Homo sapiens, UniProt Q05655); format: functional
[14] = biological target: RAC-gamma serine/threonine-protein kinase (Homo sapiens, UniProt Q9Y243); format: functional
Sequence of RAC-gamma serine/threonine-protein kinase (Q9Y243 whole entry): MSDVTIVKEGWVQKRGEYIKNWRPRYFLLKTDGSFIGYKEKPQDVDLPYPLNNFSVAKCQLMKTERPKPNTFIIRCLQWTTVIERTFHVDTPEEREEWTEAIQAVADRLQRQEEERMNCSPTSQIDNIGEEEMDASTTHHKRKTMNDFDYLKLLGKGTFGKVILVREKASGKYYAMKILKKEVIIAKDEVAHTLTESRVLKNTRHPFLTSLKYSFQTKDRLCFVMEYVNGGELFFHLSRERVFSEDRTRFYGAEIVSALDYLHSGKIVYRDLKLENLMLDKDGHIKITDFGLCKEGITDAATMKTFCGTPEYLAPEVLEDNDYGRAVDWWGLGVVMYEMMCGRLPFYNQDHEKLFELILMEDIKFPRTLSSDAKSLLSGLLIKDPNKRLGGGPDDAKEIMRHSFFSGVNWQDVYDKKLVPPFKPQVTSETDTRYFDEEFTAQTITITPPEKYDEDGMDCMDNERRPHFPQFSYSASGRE

[15] = biological target: Mast/stem cell growth factor receptor Kit (Homo sapiens, UniProt P10721); format: functional;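 also: KIT entry within a kinase panel assay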
[16] = biological target: Lymphokine-activated killer T-cell-originated protein kinase (Homo sapiens, UniProt Q96KB5); format: functional;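 also: value comes from a kinase panel screen in which TOPK was one of the panel members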
Sequence of Lymphokine-activated killer T-cell-originated protein kinase (Q96KB5 whole entry): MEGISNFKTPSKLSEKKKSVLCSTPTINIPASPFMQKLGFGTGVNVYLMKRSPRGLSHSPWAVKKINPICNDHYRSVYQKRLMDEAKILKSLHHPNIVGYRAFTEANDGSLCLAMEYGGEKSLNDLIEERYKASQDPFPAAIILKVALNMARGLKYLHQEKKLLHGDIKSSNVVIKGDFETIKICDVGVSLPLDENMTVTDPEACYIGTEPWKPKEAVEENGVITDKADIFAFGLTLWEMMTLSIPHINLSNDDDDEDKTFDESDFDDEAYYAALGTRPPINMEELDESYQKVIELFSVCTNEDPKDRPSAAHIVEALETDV

[17] = biological target: MAP/microtubule affinity-regulating kinase 3 (Homo sapiens, UniProt P27448); format: functional;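 also: MARK3 affinity measured as one member of a kinome panel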
[18] = biological target: Ribosomal protein S6 kinase beta-1 (Homo sapiens, UniProt P23443); format: functional;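 also: measured as one member of a kinome-wide profiling panel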
Sequence of Ribosomal protein S6 kinase beta-1 (P23443 whole entry): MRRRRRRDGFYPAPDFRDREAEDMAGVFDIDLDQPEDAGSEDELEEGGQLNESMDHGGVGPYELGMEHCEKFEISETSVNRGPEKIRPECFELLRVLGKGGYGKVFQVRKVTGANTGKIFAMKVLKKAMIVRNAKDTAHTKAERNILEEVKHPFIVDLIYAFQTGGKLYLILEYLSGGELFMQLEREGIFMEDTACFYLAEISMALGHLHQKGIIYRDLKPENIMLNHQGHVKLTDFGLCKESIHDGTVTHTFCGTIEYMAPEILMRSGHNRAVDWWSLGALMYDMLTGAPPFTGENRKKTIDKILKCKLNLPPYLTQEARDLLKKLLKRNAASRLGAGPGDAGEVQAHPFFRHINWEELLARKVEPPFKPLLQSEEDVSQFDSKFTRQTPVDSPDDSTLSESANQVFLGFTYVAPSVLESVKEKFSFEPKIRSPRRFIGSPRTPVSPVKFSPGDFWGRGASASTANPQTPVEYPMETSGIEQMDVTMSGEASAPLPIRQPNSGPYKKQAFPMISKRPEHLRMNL

[19] = biological target: Protein-tyrosine kinase 6 (Homo sapiens, UniProt Q13882); format: functional
[20] = biological target: Serine/threonine-protein kinase BRSK1 (Homo sapiens, UniProt Q8TDC3); format: functional;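 also: measured within a kinome-wide kinase panel, with the target listed as KIAA1811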
Sequence of Serine/threonine-protein kinase BRSK1 (Q8TDC3 whole entry): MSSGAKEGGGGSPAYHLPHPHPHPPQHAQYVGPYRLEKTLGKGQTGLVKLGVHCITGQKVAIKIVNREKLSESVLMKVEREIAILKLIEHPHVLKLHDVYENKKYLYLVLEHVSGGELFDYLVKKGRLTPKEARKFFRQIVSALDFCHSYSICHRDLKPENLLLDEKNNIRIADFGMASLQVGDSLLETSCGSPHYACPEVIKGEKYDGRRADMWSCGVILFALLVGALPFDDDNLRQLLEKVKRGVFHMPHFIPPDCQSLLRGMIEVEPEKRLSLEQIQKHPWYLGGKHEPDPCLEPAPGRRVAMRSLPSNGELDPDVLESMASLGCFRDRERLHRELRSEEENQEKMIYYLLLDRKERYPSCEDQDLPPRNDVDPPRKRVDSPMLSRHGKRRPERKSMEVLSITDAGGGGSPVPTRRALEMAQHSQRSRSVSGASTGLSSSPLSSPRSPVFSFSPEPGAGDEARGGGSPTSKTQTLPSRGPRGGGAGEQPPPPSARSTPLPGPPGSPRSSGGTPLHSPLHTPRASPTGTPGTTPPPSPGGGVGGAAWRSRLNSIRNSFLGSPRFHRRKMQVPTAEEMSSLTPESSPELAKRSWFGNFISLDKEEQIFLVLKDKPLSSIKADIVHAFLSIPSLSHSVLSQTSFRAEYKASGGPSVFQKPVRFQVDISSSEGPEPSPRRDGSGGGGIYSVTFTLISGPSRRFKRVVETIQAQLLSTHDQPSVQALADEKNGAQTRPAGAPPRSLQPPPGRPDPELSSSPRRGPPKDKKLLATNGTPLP

[21] = biological target: Non-receptor tyrosine-protein kinase TYK2 (Homo sapiens, UniProt P29597); format: functional
[22] = biological target: Serine/threonine-protein kinase PLK4 (Homo sapiens, UniProt O00444); format: functional;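 also: PLK4 measured as one member of a kinome-wide kinase profiling panel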
Sequence of Serine/threonine-protein kinase PLK4 (O00444 whole entry, the tested form may be a part): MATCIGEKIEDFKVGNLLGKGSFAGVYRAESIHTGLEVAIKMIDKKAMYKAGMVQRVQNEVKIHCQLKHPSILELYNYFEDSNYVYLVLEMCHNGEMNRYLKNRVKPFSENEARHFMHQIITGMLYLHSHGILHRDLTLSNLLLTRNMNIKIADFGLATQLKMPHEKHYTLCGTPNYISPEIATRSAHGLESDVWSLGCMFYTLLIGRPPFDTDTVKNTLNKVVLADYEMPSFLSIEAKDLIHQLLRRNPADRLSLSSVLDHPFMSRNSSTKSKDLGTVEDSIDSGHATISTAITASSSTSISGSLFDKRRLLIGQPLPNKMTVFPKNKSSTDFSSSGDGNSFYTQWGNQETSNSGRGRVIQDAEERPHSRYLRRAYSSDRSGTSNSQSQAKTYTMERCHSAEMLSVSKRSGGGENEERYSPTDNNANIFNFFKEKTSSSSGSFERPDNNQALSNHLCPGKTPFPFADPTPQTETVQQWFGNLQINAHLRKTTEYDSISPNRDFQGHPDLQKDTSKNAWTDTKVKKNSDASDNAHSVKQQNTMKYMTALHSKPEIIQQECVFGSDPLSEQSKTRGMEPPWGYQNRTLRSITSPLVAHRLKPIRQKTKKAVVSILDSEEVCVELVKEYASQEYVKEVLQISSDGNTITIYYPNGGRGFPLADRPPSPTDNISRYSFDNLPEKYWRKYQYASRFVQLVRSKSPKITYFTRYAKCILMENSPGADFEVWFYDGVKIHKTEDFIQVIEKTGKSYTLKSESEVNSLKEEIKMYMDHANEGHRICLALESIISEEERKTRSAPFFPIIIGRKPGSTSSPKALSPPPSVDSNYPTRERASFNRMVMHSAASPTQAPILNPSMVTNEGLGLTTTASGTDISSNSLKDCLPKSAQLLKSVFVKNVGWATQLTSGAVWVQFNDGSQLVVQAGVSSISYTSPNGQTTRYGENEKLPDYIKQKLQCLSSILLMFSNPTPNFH

LIM domain kinase 1 = LIM domain kinase 1 (Homo sapiens, UniProt P53667); experiment: Navigating the Kinome. Panel member name: LIMK1; format: functional
[23] = biological target: Protein kinase C iota type (Homo sapiens, UniProt P41743); format: functional;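 also: measured within a kinome-wide kinase panel, PRKCI as panel member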
[24] = biological target: T1, Sphingosine 1-phosphate receptor 4 (Homo sapiens, UniProt O95977); experiment: Fluorescence dose response cell-based high throughput screening assay for antagonists of the Sphingosine 1-Phosphate Receptor 4 (S1P4). [Related pubchem assays: 1524 (Confirmation in triplicates.), 1510 (Primary screen.)]; format: functional
T1 sequence (O95977 whole entry): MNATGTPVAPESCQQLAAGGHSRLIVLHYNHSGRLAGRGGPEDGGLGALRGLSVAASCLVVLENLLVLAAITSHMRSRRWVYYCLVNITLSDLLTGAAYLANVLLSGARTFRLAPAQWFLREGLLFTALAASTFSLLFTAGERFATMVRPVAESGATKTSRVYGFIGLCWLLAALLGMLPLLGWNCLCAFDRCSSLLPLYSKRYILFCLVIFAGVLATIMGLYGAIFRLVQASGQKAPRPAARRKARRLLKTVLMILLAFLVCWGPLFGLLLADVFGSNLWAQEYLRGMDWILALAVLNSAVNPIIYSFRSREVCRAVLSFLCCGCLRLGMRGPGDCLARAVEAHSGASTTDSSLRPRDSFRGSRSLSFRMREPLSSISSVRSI

[25] = NIH-3T3 fibroblast cytotoxicity, dose response, cytotoxicity control, cell-based, fluorescence, Alamar Blue, secondary assay (AID 2327); format: functional;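 also: NIH-3T3 mouse fibroblasts cultured with fluconazole at 8 µg/mL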
[26] = Luminescence-based dose response cell-based high throughput screening assay for cytotoxic compounds using the IEC-6 intestinal epithelial cell line. [Related pubchem assays: 1858 (Summary AID.), 1825 (Counterscreen.), 1907 (Confirmation screen.)]; format: functional
[27] = NIH3T3 cell viability loss – ATP luminescence, mouse fibroblasts, counter-screen, dose response (AID 2010); format: functional, cell-based;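 also: cells exposed to compound for about 90 hours before reading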

Sequence of Hexokinase-1 (P19367 whole entry): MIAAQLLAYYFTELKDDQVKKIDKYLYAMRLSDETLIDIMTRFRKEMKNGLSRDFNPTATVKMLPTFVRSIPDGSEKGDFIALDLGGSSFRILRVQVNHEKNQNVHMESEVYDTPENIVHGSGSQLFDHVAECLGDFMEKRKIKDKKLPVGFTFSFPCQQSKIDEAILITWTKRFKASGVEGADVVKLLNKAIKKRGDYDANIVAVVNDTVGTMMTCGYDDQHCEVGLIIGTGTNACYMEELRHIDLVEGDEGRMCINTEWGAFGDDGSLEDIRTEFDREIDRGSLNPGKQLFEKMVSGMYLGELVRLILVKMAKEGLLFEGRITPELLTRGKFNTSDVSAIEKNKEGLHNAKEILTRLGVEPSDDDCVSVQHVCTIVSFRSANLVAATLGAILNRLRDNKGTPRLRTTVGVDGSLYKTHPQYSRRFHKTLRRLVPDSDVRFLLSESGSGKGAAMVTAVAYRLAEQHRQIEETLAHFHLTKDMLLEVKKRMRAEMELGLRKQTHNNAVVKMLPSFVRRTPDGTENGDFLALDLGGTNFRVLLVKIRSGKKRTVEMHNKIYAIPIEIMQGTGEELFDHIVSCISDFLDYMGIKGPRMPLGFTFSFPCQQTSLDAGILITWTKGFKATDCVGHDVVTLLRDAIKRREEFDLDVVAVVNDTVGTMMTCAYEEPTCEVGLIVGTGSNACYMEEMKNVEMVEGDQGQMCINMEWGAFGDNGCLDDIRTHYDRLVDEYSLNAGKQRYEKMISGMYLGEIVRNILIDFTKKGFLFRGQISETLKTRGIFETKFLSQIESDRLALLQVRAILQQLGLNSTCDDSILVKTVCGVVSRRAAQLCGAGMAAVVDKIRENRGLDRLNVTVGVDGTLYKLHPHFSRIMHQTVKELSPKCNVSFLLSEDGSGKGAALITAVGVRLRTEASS

Structure (SMILES): O=C1C(Cl)=C(NCc2cccnc2)C(=O)c2ccccc21
- EC50 (Hexokinase-1): 30.8 µM (inactive)

Structure (SMILES): CN(C)c1ncc(C2=C(Cl)C(=O)C(N3CCCC3)=C(Cl)C2=O)s1
- EC50 [1]: > 79.4 µM (not active)
- IC50 (Beta-galactosidase): > 66.6 µM (inactive)
- EC50 (H4): 34.1 µM (active)
- EC50 [2]: > 120 µM (not active)
- IC50 [3]: > 64 µM (inactive)
- CC50 [4]: 18.7 µM (active)
- IC50 [5]: > 100 µM (active)

Structure (SMILES): Cc1ccc(C(=O)c2c(C)oc3c2C(=O)C(=O)c2ccccc2-3)cc1
- IC50 [6]: 2.2 µM (active)
- IC50 [7]: 6.83 µM (active)

Structure (SMILES): O=C1C(O)=C/C(=N\c2ccccc2O)c2ccccc21
- EC50 (HEK293): 14.8 µM (active)

Structure (SMILES): O=C1NC(=S)SC1=C1C(=O)Nc2ccc(Br)cc21
- Ki [8]: 7.94 µM (active)
- Ki [9]: > 10 µM (inactive)
- Ki [10]: > 1.58 µM (inactive)
- Ki [11]: > 1.58 µM (inactive)
- Ki [12]: 3.16 µM (active)
- Ki [13]: > 7.94 µM (inactive)
- Ki [14]: > 10 µM (inactive)
- Ki [15]: > 1.26 µM (inactive)
- Ki [16]: 7.94 µM (active)
- Ki [17]: 2.51 µM (active)
- Ki [18]: 6.31 µM (active)
- Ki [19]: > 2.51 µM (inactive)
- Ki [20]: > 10 µM (inactive)
- Ki [21]: > 2 µM (inactive)
- Ki [22]: 1.26 µM (active)
- Ki (LIM domain kinase 1): 3.98 µM (active)
- Ki [23]: > 5.01 µM (inactive)

Structure (SMILES): Cc1ccc(Nc2cc(C)nn2-c2nc(C)cc(O)n2)cc1
- IC50 [24]: 0.17 µM (active)
- EC50 [25]: 1.76 µM (inconclusive)
- IC50 [26]: 0.546 µM (active)
- EC50 [27]: 0.497 µM (active)

Reference: ChEMBL document CHEMBL1201862, “PubChem BioAssay data set” (2004)
